Test system: A549 cells and A549 xenografts
Test: Immunoblot analysis of EGFR downstream signaling (ERK, AKT) in A549 cells and A549 xenografts
Type: cell-based
Settings: in vitro and in vivo samples
Method: The treated cells or tumor tissues were lysed using an RIPA lysis buffer (Sigma) unsupplemented or supplemented with a phosphatase inhibitor+a protease inhibitor (Thermo Scientific). A total of 50 μg of protein was analyzed by immunoblotting via incubation at 4° C. overnight with Sprimary antibody specific to KRAS (Santa Cruz, 1:200 dilution), p-ERK (cell signal, 1:1000 dilution), ERK (Cell Signaling, 1:1000 dilution), and β-Actin (Abcam, 1:10000 dilution) and then incubation with secondary antibodies conjugated with horseradish peroxidase for 2 hours at room temperature. The proteins were visualized by chemicalluminescence using a Western ECL substrate (Bio-Rad) and luminescence images were analyzed by a LAS-3000 (Fujifilm). Band intensities were quantified using ImageJ software.
FIG. 6D illustrates immunoblot analysis of EGFR downstream signaling pathways in A549 cells and A549 xenografts.

Cn1cnc2c(F)c(Nc3ccc(Br)cc3Cl)c(C(=O)NOCCO)cc21 [AZD6244]
activation (phosphorylation) of ERK: inhibited only activation of ERK

Source: US20190106688A1, “FUSION PROTEIN FOR CRISPR/CAS SYSTEM AND COMPLEX COMPRISING THE SAME AND USES THEREOF” (KOREA INSTITUTE OF SCIENCE AND TECHNOLOGY, priority 2017, published 2019)
